Test results reported in BigSolDB 2.1.

COc1ccc2cccc(CCNC(C)=O)c2c1
solubility (mole fraction)
Conditions	in ethanol	in ethyl acetate	in isopropanol	in methanol	in n-butanol	in n-butyl acetate	in n-pentyl acetate	in n-propanol	in n-propyl acetate	in water
278.15 K	0.0109	0.00662	0.00499	0.0192	0.00986	0.00323	0.00181	0.00905	0.00406	1.8e-05
283.15 K	0.0169	0.00934	0.0107	0.0264	0.0147	0.00474	0.00281	0.016	0.00625	2.9e-05
288.15 K	0.0235	0.0131	0.0186	0.0347	0.0214	0.00661	0.00432	0.0201	0.00886	4.59e-05
293.15 K	0.0319	0.0175	0.0256	0.0442	0.0279	0.00944	0.00601	0.0261	0.0127	6.85e-05
298.15 K	0.0425	0.0263	0.032	0.0584	0.04	0.0134	0.00884	0.0402	0.018	0.000119
303.15 K	0.0542	0.0342	0.039	0.0752	0.05	0.0207	0.0156	0.0484	0.0255	0.000161
308.15 K	0.0819	0.0454	0.053	0.101	0.06	0.0261	0.021	0.0694	0.0364	0.000248
313.15 K	0.109	0.0598	0.0686	0.147	0.0802	0.038	0.0294	0.0892	0.0466	0.00038
318.15 K	0.144	0.0754	0.0893	0.18	0.107	0.0507	0.0397	0.115	0.0639	0.000551
